Experimental data as given in PubChem BioAssay (NCI).
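Compound exposure: 48 hours, 5 concentrations, 96-well plates. GI50 = concentration required for 50% inhibition of growth. TGI denotes the concentration required for complete inhibition of growth.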

What was measured:
Assay in all cases: DTP human tumour cell line panel, 48 h
ACHN renal = test system: ACHN renal
BT-549 breast = test system: BT-549 breast
CCRF-CEM leukemia = test system: CCRF-CEM leukemia
HS 578T breast = test system: HS 578T breast
MDA-MB-435 = test system: MDA-MB-435
NCI-H460 lung = test system: NCI-H460 lung
OVCAR-3 ovarian = test system: OVCAR-3 ovarian
SK-MEL-28 melanoma = test system: SK-MEL-28 melanoma
UACC-257 melanoma = test system: UACC-257 melanoma
UACC-62 melanoma = test system: UACC-62 melanoma

Structure (SMILES) | GI50 (ACHN renal) [nM] | TGI (ACHN renal) [µM] | GI50 (BT-549 breast) [µM] | TGI (BT-549 breast) [µM] | GI50 (CCRF-CEM leukemia) [nM] | TGI (CCRF-CEM leukemia) [µM] | GI50 (HS 578T breast) [µM] | TGI (HS 578T breast) [µM] | GI50 (MDA-MB-435) [nM] | TGI (MDA-MB-435) [µM] | GI50 (NCI-H460 lung) [nM] | TGI (NCI-H460 lung) [µM] | GI50 (OVCAR-3 ovarian) [nM] | TGI (OVCAR-3 ovarian) [µM] | GI50 (SK-MEL-28 melanoma) [nM] | TGI (SK-MEL-28 melanoma) [µM] | GI50 (UACC-257 melanoma) [nM] | TGI (UACC-257 melanoma) [µM] | GI50 (UACC-62 melanoma) [nM] | TGI (UACC-62 melanoma) [µM]
O=Cc1ncc(-c2ccc(C(F)(F)F)cc2)c(NC2CCCCCC2)n1 | > 10000 | > 10 | > 10 | > 10 | > 10000 | > 10 | > 10 | > 10 | > 10000 | > 10 | > 10000 | > 10 | > 10000 | > 10 | > 10000 | > 10 | > 10000 | > 10 | > 10000 | > 10
COC(=O)C1=C(C(=O)Nc2cccnc2)C2OC1(C(Cc1ccccc1)Oc1ccccc1)C1OC21 (stereo not given) | 1490 | 3 | 3.43 | 12.8 | 360 | 2.14 | 18.6 | 49.9 | 3790 | 13.6 | 16400 | 34.1 | 1780 | 3.2 | 1830 | 3.48 | 1850 | 3.71 | 3230 | 13.1
CCOc1ccc(/C=N/Nc2cc(C)nc3ccc(Cl)cc23)cc1 | 1780 | 3.17 | 1.61 | 3.15 | 1470 | 3.76 | 2.15 | 4.67 | 1750 | 3.26 | 2060 | 4.27 | 1930 | 3.5 | 1780 | 3.19 | 1810 | 3.32 | 1790 | 3.32
Nc1nn(C(=O)Nc2ccc(Cc3ccccc3)cc2)c2ccc(Cl)cc12 | 64.6 | 26.4 | 12.4 | > 66.3 | 3080 | > 58.7 | 14.4 | 44.3 | 138 | > 100 | 65.8 | 15.3 | 7140 | 21.6 | 7910 | > 100 | 10100 | > 100 | 39.7 | > 100
O=C(c1ccc(F)c(F)c1Nc1ccc(I)cc1F)N1CC(O)([C@H]2CCCCN2)C1 | 1860 | 15.8 | 10.9 | 23.9 | 12500 | 29.4 | 9.74 | 33.7 | 161 | 15.8 | 4190 | 20.2 | 12100 | 25.2 | 95.3 | 3.45 | 80 | 0.472 | 97 | 2.92
C[C@H]1O[C@@H](O[C@H]2[C@@H](O)C[C@H](O[C@H]3[C@@H](O)C[C@H](O[C@H]4CC[C@]5(C)C6C[C@@H](O)[C@]7(C)[C@@H](C8=CC(=O)OC8)CC[C@]7(O)C6CC[C@@H]5C4)O[C@@H]3C)O[C@@H]2C)C[C@H](O)[C@@H]1O (stereo not given in full) | 22 | 0.115 | 0.0246 | 0.0928 | 21.6 | 0.153 | 0.0311 | 4.3 | 135 | 0.418 | 19.7 | 0.0748 | 24.1 | 0.0792 | 104 | 0.222 | 101 | 0.237 | 103 | 0.228
